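Following 48 hours of exposure in 96-well plates, responses at five concentrations were used to interpolate endpoints linearly. The concentration for 50% growth inhibition is given as GI50.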 Activity calls are given as the source filed them. Rule as the data show it: active = GI50 up to about 1.1 µM and inactive = higher.
Key:
Test in all cases: growth of human tumour cells (NCI), 48 h
A549 = system: A549
EKVX = system: EKVX
HL-60 = system: HL-60
KM12 = system: KM12
LOX IMVI = system: LOX IMVI
MOLT-4 = system: MOLT-4
NCI-H460 = system: NCI-H460
RXF 393 = system: RXF 393
SK-MEL-28 = system: SK-MEL-28
SK-MEL-5 = system: SK-MEL-5
SNB-19 = system: SNB-19
SR = system: SR
TK-10 = system: TK-10
U-251 = system: U-251

SMILES	GI50 (A549)	GI50 (EKVX)	GI50 (HL-60)	GI50 (KM12)	GI50 (LOX IMVI)	GI50 (MOLT-4)	GI50 (NCI-H460)	GI50 (RXF 393)	GI50 (SK-MEL-28)	GI50 (SK-MEL-5)	GI50 (SNB-19)	GI50 (SR)	GI50 (TK-10)	GI50 (U-251)
CC/C(C)=C1\CCC(CN(C)C)C1=O (configuration not stated)	22.9 µM (inactive)	21.9 µM (inactive)	18.4 µM (inactive)	15 µM (inactive)	20.6 µM (inactive)	26.7 µM (inactive)	19.3 µM (inactive)	20.7 µM (inactive)	22.9 µM (inactive)	33.3 µM (inactive)	> 100 µM (inactive)	19.3 µM (inactive)	17.3 µM (inactive)	
COC(=O)C(CCS(=O)(=O)CC(=O)C(=O)Nc1cccc(C(C)=O)c1)C(=O)OC	> 100 µM (inactive)	> 100 µM (inactive)	> 100 µM (inactive)	> 100 µM (inactive)	> 61.9 µM (inactive)	> 100 µM (inactive)	> 53 µM (inactive)	> 100 µM (inactive)	> 91.4 µM (inactive)	> 100 µM (inactive)	> 100 µM (inactive)	20.9 µM (inactive)	> 100 µM (inactive)	> 89.7 µM (inactive)
CC(C)N(C(=O)C12C3C4C5C3C1(C(=O)N(C(C)C)C(C)C)C5C42)C(C)C (configuration not stated)	> 58.9 µM (inactive)	> 100 µM (inactive)	> 37.6 µM (inactive)	> 100 µM (inactive)	> 46.8 µM (inactive)	68.9 µM (inactive)	> 56.8 µM (inactive)	> 100 µM (inactive)	> 100 µM (inactive)	> 100 µM (inactive)	> 100 µM (inactive)	19.1 µM (inactive)	> 100 µM (inactive)	> 100 µM (inactive)
COC1=CC(=O)[C@H]2[C@H](C)C(c3ccccc3)[C@@]2(C)C1=O (some centres not stated)	> 100 µM (inactive)	> 100 µM (inactive)	> 100 µM (inactive)	> 100 µM (inactive)	> 100 µM (inactive)	> 100 µM (inactive)	> 100 µM (inactive)	> 100 µM (inactive)	> 100 µM (inactive)	> 100 µM (inactive)	> 100 µM (inactive)	> 100 µM (inactive)	> 100 µM (inactive)	> 100 µM (inactive)
O=C1C(Cl)C(c2ccccc2)N1n1cnc2ccccc2c1=O (configuration not stated)	> 100 µM (inactive)	44.2 µM (inactive)	> 100 µM (inactive)	> 100 µM (inactive)	> 100 µM (inactive)	> 100 µM (inactive)	> 100 µM (inactive)	76.9 µM (inactive)	> 100 µM (inactive)	> 100 µM (inactive)	60.4 µM (inactive)	36.1 µM (inactive)	> 100 µM (inactive)	> 100 µM (inactive)
C=CCN1COc2c(cc3c4c(cccc24)C(=O)O3)C1	> 100 µM (inactive)	35.7 µM (inactive)	21.4 µM (inactive)	75.3 µM (inactive)	> 10 µM (inactive)	27 µM (inactive)	43.6 µM (inactive)	> 10 µM (inactive)	24.6 µM (inactive)	44.1 µM (inactive)	> 100 µM (inactive)		21.7 µM (inactive)	> 100 µM (inactive)
O=C1/C(=C/c2cc(O)c(O)c(O)c2)Oc2cc(O)cc(OC3OC(CO)C(O)C(O)C3O)c21 (configuration not stated)	32.4 µM (inactive)	43.6 µM (inactive)	15.6 µM (inactive)	29.6 µM (inactive)	1.73 µM (inactive)	19.1 µM (inactive)	13.9 µM (inactive)		46.3 µM (inactive)	13.3 µM (inactive)	> 100 µM (inactive)		30.5 µM (inactive)	> 10 µM (inactive)
CCc1cccc(C(C)C)c1NC(=O)C(=O)C(C(=O)C(=O)OC)c1nc2ccccc2nc1O (configuration not stated)	> 100 µM (inactive)	44.7 µM (inactive)	> 100 µM (inactive)	> 100 µM (inactive)	> 100 µM (inactive)	> 100 µM (inactive)	> 100 µM (inactive)	> 100 µM (inactive)	> 100 µM (inactive)	> 100 µM (inactive)	> 100 µM (inactive)	> 100 µM (inactive)	> 100 µM (inactive)	> 100 µM (inactive)
Cc1ccc2c(c1)CNc1ccc(C)cc1CN2	> 100 µM (inactive)	> 100 µM (inactive)	> 100 µM (inactive)	> 100 µM (inactive)	> 100 µM (inactive)	> 100 µM (inactive)	> 100 µM (inactive)			62.4 µM (inactive)	< 0.01 µM (active)	> 100 µM (inactive)		> 100 µM (inactive)
CC(=O)/C=C1\CC(=O)Nc2ccccc2N1	> 100 µM (inactive)	> 100 µM (inactive)	> 100 µM (inactive)	> 100 µM (inactive)	> 100 µM (inactive)		> 100 µM (inactive)	> 100 µM (inactive)	> 100 µM (inactive)	> 100 µM (inactive)	> 100 µM (inactive)		> 100 µM (inactive)	> 100 µM (inactive)
CCCc1cc(OC(=O)c2c(O)cc(OC)cc2CCC)cc(O)c1C(=O)O	30.2 µM (inactive)	26.2 µM (inactive)	23 µM (inactive)	28.2 µM (inactive)	23.8 µM (inactive)	29.5 µM (inactive)	23.9 µM (inactive)	16.6 µM (inactive)	28.2 µM (inactive)		25.1 µM (inactive)		48.5 µM (inactive)	23.9 µM (inactive)
N#C/C(=C\c1cccc(Cl)c1Cl)c1ccccc1	66.8 µM (inactive)	> 69.5 µM (inactive)	> 100 µM (inactive)	> 82.4 µM (inactive)	> 75.9 µM (inactive)	> 100 µM (inactive)	58.9 µM (inactive)	31 µM (inactive)	> 100 µM (inactive)	65.3 µM (inactive)	> 49.3 µM (inactive)	> 38.1 µM (inactive)	57.3 µM (inactive)	36.2 µM (inactive)
Cc1ccc(NC(=O)CCC/C(CC(=O)c2ccc(Br)cc2)=N/NC(=O)CC#N)cc1	> 100 µM (inactive)	> 100 µM (inactive)	> 100 µM (inactive)	> 100 µM (inactive)	> 100 µM (inactive)	> 100 µM (inactive)	> 100 µM (inactive)	> 100 µM (inactive)	> 100 µM (inactive)	> 100 µM (inactive)	> 100 µM (inactive)		> 100 µM (inactive)	> 100 µM (inactive)
CSc1nc(Cl)c(Br)c(Sc2nc(N)nc3nc[nH]c23)n1	19.5 µM (inactive)		3.63 µM (inactive)	5.18 µM (inactive)		4.2 µM (inactive)	5.07 µM (inactive)		11 µM (inactive)	12.5 µM (inactive)	16.6 µM (inactive)	3.48 µM (inactive)	6.79 µM (inactive)	4.48 µM (inactive)
COc1cc2c(cc1OC)C1C=NC(C(=O)O)(C2)c2ccccc21 (configuration not stated)	> 100 µM (inactive)	> 100 µM (inactive)	26.4 µM (inactive)	> 100 µM (inactive)	> 100 µM (inactive)	> 100 µM (inactive)	> 100 µM (inactive)	> 100 µM (inactive)		> 100 µM (inactive)	> 100 µM (inactive)	> 100 µM (inactive)	> 100 µM (inactive)	> 100 µM (inactive)
NC(CCc1nc(-c2ccccc2)cs1)C(=O)O (configuration not stated)	> 100 µM (inactive)	> 100 µM (inactive)	> 100 µM (inactive)	> 100 µM (inactive)	> 100 µM (inactive)	> 100 µM (inactive)	> 100 µM (inactive)	> 100 µM (inactive)	> 100 µM (inactive)	> 100 µM (inactive)	> 100 µM (inactive)		> 100 µM (inactive)	> 100 µM (inactive)
COC(=O)C1Cc2c([nH]c3ccccc23)C(C2CCCCC2)N1 (configuration not stated)	> 100 µM (inactive)	> 100 µM (inactive)	> 100 µM (inactive)	> 100 µM (inactive)	> 100 µM (inactive)	> 100 µM (inactive)	> 100 µM (inactive)		> 100 µM (inactive)	52.7 µM (inactive)	> 100 µM (inactive)	> 100 µM (inactive)	> 100 µM (inactive)	> 100 µM (inactive)
O=C(CC1(O)C(=O)Nc2ccc(Br)cc21)c1ccc(Cl)cc1 (configuration not stated)	> 100 µM (inactive)	> 100 µM (inactive)	> 10 µM (inactive)	47.4 µM (inactive)	18.2 µM (inactive)	43.3 µM (inactive)	> 100 µM (inactive)	52.2 µM (inactive)	> 100 µM (inactive)	> 100 µM (inactive)	84.9 µM (inactive)		> 100 µM (inactive)	27.6 µM (inactive)
CC1CC2C(=O)NC(=O)C2c2[nH]c3ccccc3c21 (configuration not stated)	> 100 µM (inactive)	> 100 µM (inactive)	40.6 µM (inactive)	> 100 µM (inactive)	> 100 µM (inactive)	> 100 µM (inactive)	> 100 µM (inactive)			70 µM (inactive)		> 100 µM (inactive)		> 100 µM (inactive)
N/N=C1\C(=O)N(C2CCCCC2)C(=O)C1C(=O)NC1CCCCC1 (configuration not stated)	> 100 µM (inactive)	> 100 µM (inactive)	26.2 µM (inactive)	> 100 µM (inactive)	> 100 µM (inactive)	> 100 µM (inactive)	> 100 µM (inactive)		81.8 µM (inactive)	33.7 µM (inactive)	> 100 µM (inactive)	> 100 µM (inactive)		> 100 µM (inactive)
COc1ccc2cc3[n+](cc2c1OC)CCc1cc(O)c(O)cc1-3	> 100 µM (inactive)	> 100 µM (inactive)	> 100 µM (inactive)	> 100 µM (inactive)	> 100 µM (inactive)	> 100 µM (inactive)	> 100 µM (inactive)	> 100 µM (inactive)		> 100 µM (inactive)	> 100 µM (inactive)		> 100 µM (inactive)	> 100 µM (inactive)

Reference: ChEMBL document CHEMBL1201862, “PubChem BioAssay data set” (2004)
